The values below come from a melting point compilation (Tetko et al.; mined from patent text by program, amines drawn as free bases though some values may be those of a salt).

For `O=C(Nc1ccc(-n2nc(C(F)(F)F)cc2C(F)(F)F)cc1)c1cccc(F)c1`, the melting point was 148 to 151 °C.

Regarding `COC(=O)Nc1nccc(Oc2ccc3c(C(=O)Nc4ccc(F)c(C(F)(F)F)c4)cccc3c2)n1`, the melting point fell in the range of 204 to 205 °C.

Consider `CCOP(=O)(C/C=C/CNc1c(N)c(=O)c1=O)OCC`, for which the melting point lay within 145 to 147 °C.

`COc1cc(-c2ccc(-c3ccc(N)c(OC)c3)o2)ccc1N` gave a melting point of 188 to 190 °C.

On to `Cc1ncc(C(=O)N2CCC(=O)CC2)c(C)n1`, for which the melting point came to 116 °C.

Compound `NCC1Cc2cc(C(F)(F)F)cc(-c3ccc(F)c(Cl)c3)c2O1` (centres undefined) gave a melting point greater than 250 °C.

`N#Cc1cc(-c2ccnc(Nc3cccc(C(F)(F)F)c3)n2)ccn1` returned a melting point of 164 to 166 °C.

With `COC(=O)CCCc1cc2nc(Cl)ccc2n1S(=O)(=O)c1ccc(I)cc1`, the melting point is 117 to 118 °C.

`CCc1cn2c(n1)Cc1cc3c(cc1C(c1ccc(N)cc1)=N2)OCO3`: the melting point fell in the range of 192 to 194 °C.

Consider `O=C(O)c1c(OCc2ccccc2)c2ccccc2n1-c1ccccc1`, for which the melting point was 140 to 142 °C.

In turn, `CNS(=O)(=O)c1cc2c(c(C(=O)OC)c1)OCCO2` registered a melting point of 159 to 160 °C.

As to `CN(C)C(=O)C1(c2cc(C#N)ccc2O)CCCC1`, the melting point fell in the range of 144 to 146 °C.

With `CC(C)(O)Cn1cnc2c(N)nc3ccc(Br)cc3c21`, the melting point is 197 to 198 °C.

In turn, `CC(C)(C)OC(=O)N1CCN(c2ccc(Nc3ncc4ccc(N)nc4n3)cc2)CC1` displayed a melting point of 219 to 220 °C.

In the case of `CCC(=O)c1cc(C(=O)C(=O)c2cccc(OC)c2)cn1CC`, the melting point turned out to be 97 °C.

`O=C1C(=O)N2CCOc3cc([N+](=O)[O-])cc1c32` came in with a melting point of 230 to 232 °C.

On to `COC(=O)c1nsc(S)n1`, for which the melting point was in the range of 126 to 127 °C.

The compound `NS(=O)(=O)N1CCC(C2c3ncc(Br)cc3CCc3cc(Cl)cc(Cl)c32)CC1` (single isomer, unassigned; (+)) came in with a melting point of 133 to 134 °C.

For the compound `CCOC(=O)Nc1ncc(-c2nc3ccccc3c(=O)n2-c2ccccc2OC)s1`, the melting point was in the range of 263 to 264 °C.

`O=C(NC1CCN(CCCOC(=O)c2ccccc2)CC1)c1ccccc1` registered a melting point of 146 to 147 °C.

Regarding `CCOC(C)(OCC)C(=O)c1c[nH]c2ncc(-c3cc(OC)c(OC)c(OC)c3)nc12`, the melting point fell in the range of 198 to 201 °C.

Consider `CCC1(Cl)Cc2cc(OCCCC(=O)O)c(Cl)c(Cl)c2C1=O` (centres undefined), for which the melting point fell in the range of 123 to 124 °C.

On to `Cc1nnc(-c2ccc3occ(-c4ccc(S(C)(=O)=O)cc4Cl)c3c2)o1`, for which the melting point fell in the range of 198 to 199 °C.

With `NC(=O)[C@H]1CN(c2ccc(C3CCOCC3)c(F)c2)C(=O)O1`, the melting point is 153 to 156 °C.

For `COc1ccc(Nc2cc(NCCCO)ncn2)cc1`, the melting point was in the range of 151 to 152 °C.

The compound `NCC1Cc2cccc(-c3cc(Cl)cc(Cl)c3)c2O1` (centres undefined) gave a melting point of 165 to 168 °C.

`O=C(NCCOc1ccc(CC(Oc2ccc(Cl)cc2)C(=O)O)cc1)c1ccc(-c2ccccn2)cc1` (centres undefined) had a melting point of 155 to 156 °C.

With `CC(=O)NC1CCC(NC(=O)Nc2ccc(C(F)(F)F)cc2)CC1` (centres undefined), the melting point was greater than 400 °C.

Regarding `CCOC(=O)C(C(=O)C(C)C)C(c1ccc(F)cc1)c1ccccn1` (centres undefined), the melting point is 106 to 108 °C.

`O=C1c2ccccc2C(OCC2CO2)N1c1ccccc1` (centres undefined) came in with a melting point of 76 °C.

As to `COc1ccc2c(c1)Nc1cccc(S(=O)(=O)N(C)C)c1S2`, the melting point is 196 to 198 °C.

Turning to `CC1=C(C(=O)OCCN2C(=O)c3ccccc3C2=O)C(c2cccc([N+](=O)[O-])c2)C(C(=O)OCCN2C(=O)c3ccccc3C2=O)=C(C)N1`, the melting point lay within 92 to 94 °C.

Take `COc1cn(C(C)C(=O)N(C)C)nc1-c1ccccc1` (centres undefined): the melting point fell in the range of 96.5 to 98 °C.

The compound `CCCNC(=O)[C@H](C)C[C@H](O)[C@H](CC1CCCCC1)NC(=O)OC(C)(C)C` registered a melting point of 115 to 116 °C.

Compound `CC(=O)NC1CCCCC1Sc1ccccc1` (centres undefined) returned a melting point of 132 to 133 °C.

On to `CCC(CC)c1ccc(OC)c2nc(Oc3c(C)cc(Cl)cc3Cl)n(C)c12`, for which the melting point was in the range of 130 to 131 °C.

In turn, `CCCC(=O)ONC(=N)c1ccc(NC(=O)CCCC(=O)Nc2ccc(C(=N)NOC(=O)CCC)cc2)cc1` showed a melting point of 194 to 196 °C.

The compound `CC(=O)Nc1cccc(C)c1C(=O)O` returned a melting point of 189 to 190 °C.

With `Cc1ccc(C=CC(=O)C=Cc2ccc(C)cc2)cc1`, the melting point was in the range of 174 to 176 °C.

In turn, `CCN(CC)c1ccccc1C(=O)O` came in with a melting point of 122 to 123 °C.

`O=[N+]([O-])c1cc(Br)cc(OCCF)c1` gave a melting point of 59 to 61 °C.

`N#CN1CCC2(CC1)Oc1ccccc1C2n1cccc1` (centres undefined) came in with a melting point of 165 to 168 °C.

With `C#CCOCCn1c(CN2CCCN(C)CC2)nc2ccccc21`, the melting point fell in the range of 133 to 136 °C.

In turn, `Cc1nn(-c2cccc(N)c2)c2c1C(=O)CC(C)(C)C2` registered a melting point of 131 to 132 °C.

`Cn1cc(Br)nc(Nc2cccnc2)c1=O` returned a melting point greater than 250 °C.

Compound `COC(=O)c1c[nH]c(Sc2cc(Cl)c(Cl)cc2Cl)c1` yielded a melting point of 165 to 175 °C.

Compound `O=C(Nc1cccc2c1C(=O)c1c-2n[nH]c1-c1ccc(C(=O)N2CCN(CC3CC3)CC2)s1)NN1CCOCC1` returned a melting point of 211 to 212 °C.

Compound `O=C(CNS(=O)(=O)c1ccc2[nH]c(=O)c(=O)[nH]c2c1)OCc1ccccc1` had a melting point of 270 to 280 °C.

Consider `FC(F)(F)Oc1ccc2nc(COc3ccccc3)[nH]c2c1`, for which the melting point is 65 to 66 °C.

In the case of `S=c1[nH]c(Nc2ccc(Cl)cc2)nc2ccccc12`, the melting point is 264 to 268 °C.

For the compound `Clc1ccc2c(c1)N=C(c1ccncc1)c1ccccc1O2`, the melting point came out at 122 °C.

Compound `COc1nc(Cl)cnc1N` gave a melting point of 102 to 103 °C.

The compound `COC(=O)Cc1ccc2c(=O)c3ccccc3ccc2c1` registered a melting point of 67 to 69 °C.

Compound `O=C(NCCO)c1csc(C(F)(F)F)n1` yielded a melting point of 100 to 101 °C.

The compound `Cc1nn(CCO)c(C)c1Oc1cc(Cl)cc(C#N)c1` gave a melting point of 114 to 116 °C.

In the case of `COCCC1CCCCN1C(=O)C=Cc1c(-c2ccccc2)nn2ccccc12` (centres undefined), the melting point was in the range of 139 to 140 °C.

On to `Cn1c(=O)oc2cc([N+](=O)[O-])cc(F)c21`, for which the melting point lay in the range of 118 to 119 °C.

On to `CCOCc1nc2c(N)nc3ccccc3c2n1CCNC(=O)CCCCC1SCC2NC(=O)NC21` (centres undefined), for which the melting point was 171 to 175 °C.

`COc1cc2cc(-c3ccccc3F)sc2c(Cl)c1Cl` came in with a melting point of 143 to 144 °C.

`Clc1cccc(-c2cnn(-c3ccccn3)c2)c1`: the melting point is 110 to 111 °C.

In the case of `Fc1ccc2c(C3CCN(CCN4CCOCC4)CC3)noc2c1`, the melting point was in the range of 131 to 132 °C.

Turning to `CCc1ccc(CC2N=C(c3ccc(F)cc3)c3cc(Cl)ccc3NC2=O)cc1CC` (centres undefined), the melting point is 88 to 90 °C.

In turn, `CCOC(=O)c1[nH]cc2c1NC1=C(C(=O)CCC1)C2c1ccc(Sc2nc3ccc(F)c(F)c3[nH]2)o1` (centres undefined) gave a melting point of 144 to 148 °C.

With `CCOC(=O)C1=CC2(CCC1S(=O)(=O)Nc1ccc(F)cc1Cl)S(=O)(=O)CCS2(=O)=O` (centres undefined), the melting point was in the range of 88 to 90 °C.

For the compound `CC(NC(=O)OCc1ccccc1)C(=O)NC1C(C(=O)O)OC(n2cnc3c(NC(=O)c4ccccc4)ncnc32)C1O` (centres undefined), the melting point lay in the range of 154 to 156 °C.

For `Cn1cc(-c2ccccc2)c(=O)c(-c2cccc([N+](=O)[O-])c2)c1`, the melting point is 135 to 136 °C.

In the case of `CC(C)(C)NS(=O)(=O)c1ccccc1`, the melting point lay in the range of 77 to 78 °C.

`COc1cc(C(C)C)ccc1C1(NC(C)=O)C(=O)c2ccccc2C1=O` yielded a melting point of 222 to 224 °C.

`COC(=O)c1ccc(Oc2cccnc2)c(N)c1` gave a melting point of 101 °C.

Take `CC(C)(C)n1nnc(NC(=O)C2c3ccccc3Oc3ccccc32)n1`: the melting point is 230 to 231 °C.

`COc1cc2c(-c3ccccc3)csc2c(Cl)c1Cl` registered a melting point of 117 to 119 °C.

`CCc1nc(N)nc2c1nc(NC)n2C1CC(N=[N+]=[N-])C(CO)O1` (centres undefined) came in with a melting point of 38 to 43 °C.

Regarding `CSc1nnc2c(=O)[nH]c(-c3ccccc3OCC3CC3)nc2n1`, the melting point was 235 to 236 °C.

For the compound `O=C1CN(c2nccc(Oc3ccc(NC(=O)c4cc(F)cc(N5CCCCC5)c4)c4ccccc34)n2)CCN1`, the melting point fell in the range of 140 to 142 °C.

As for `CCSc1ncn(-c2ccc(O)cc2)n1`, the melting point came out at 170 °C.

Compound `CCOC(=O)C1(CC(=O)Nc2cccnc2)N=C(c2ccc(Cl)cc2)c2c(sc(C)c2C)-n2c(C)nnc21` (centres undefined) came in with a melting point of 133 to 135 °C.

Compound `CCC(=O)c1ccc(-c2ccccc2)cc1` showed a melting point of 98 to 99 °C.

Regarding `O=C(c1ccccc1)C1C=C(Cl)C=CC1(F)NCCO` (centres undefined), the melting point fell in the range of 96 to 101 °C.

In the case of `O=C(O)c1cn(C2CC2)c2cc(N3CCC(c4ccncc4)C3)c(F)cc2c1=O` (centres undefined), the melting point lay in the range of 260 to 261 °C.

Turning to `O=C(NNS(=O)(=O)c1ccccc1)c1cc2ccccc2o1`, the melting point was 164 to 167 °C.

`O=c1[nH]c2cc(F)c(F)cc2n2ccnc12` came in with a melting point greater than 300 °C.

`CCCS(=O)c1c2ccccc2nc2c1c(C)nn2-c1ccccn1` (centres undefined) had a melting point of 125 to 127 °C.

For `Cc1ccc(S(=O)(=O)ON=C(CCN2C(=O)c3ccccc3C2=O)n2nc(C)c(Cl)c2N)cc1`, the melting point fell in the range of 168 to 171 °C.

In turn, `S=c1[nH]nc(C=Cc2ccc3ccccc3c2)o1` showed a melting point greater than 250 °C.

Turning to `COC(=O)C1=C(C)NC(C)=C(C(=O)OCCCCCCCCN)C1c1cccc([N+](=O)[O-])c1` (centres undefined), the melting point lay within 129 to 131 °C.

On to `Cc1c(C(=O)N[C@H](C)[C@](O)(Cn2cncn2)c2ccc(F)cc2F)cnn1-c1cccc(C(F)(F)F)c1`, for which the melting point was in the range of 146 to 147 °C.

For the compound `O=C(CC1CCC(CC(=O)Oc2cc(O)cc(O)c2)CC1)Oc1cc(O)cc(O)c1` (centres undefined), the melting point fell in the range of 215 to 220 °C.

The compound `CCOc1nn(Cc2ccc(OCc3nc4ccccc4n3C)cc2)cc1CCC(=O)O` yielded a melting point of 177 to 178 °C.

`COc1ccc(Nc2nc(Cl)nc(NCC3CCCCC3)n2)cc1F` displayed a melting point of 156 °C.
